Results reported in ChEMBL document CHEMBL1140512, “N-Alkylidenearylcarboxamides as new potent and selective CB(2) cannabinoid receptor agonists with good oral bioavailability” (Bioorg Med Chem Lett, 2007).

Assays:
Homo sapiens = species on record: Homo sapiens; assay: Selectivity for human CB2 receptor over CB1 receptor
Cannabinoid receptor 2 [1] = target: T1, Cannabinoid receptor 2 (Homo sapiens, UniProt P34972); assay: Efficacy at human CB2 receptor expressed in CHO cells by [35S]GTP-gamma-S binding assay relative to CP-55940; assay type: functional, cell-based
T1 sequence (P34972 whole entry): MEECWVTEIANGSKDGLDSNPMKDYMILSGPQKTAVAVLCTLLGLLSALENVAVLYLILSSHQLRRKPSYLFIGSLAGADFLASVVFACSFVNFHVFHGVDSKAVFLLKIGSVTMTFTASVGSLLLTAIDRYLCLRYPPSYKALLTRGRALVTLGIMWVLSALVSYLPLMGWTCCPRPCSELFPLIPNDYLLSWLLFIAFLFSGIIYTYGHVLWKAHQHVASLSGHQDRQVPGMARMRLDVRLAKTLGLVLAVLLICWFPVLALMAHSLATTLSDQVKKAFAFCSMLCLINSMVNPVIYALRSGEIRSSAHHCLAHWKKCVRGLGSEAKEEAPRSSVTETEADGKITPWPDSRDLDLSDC

Cannabinoid receptor 1 = Cannabinoid receptor 1 (Homo sapiens, UniProt P21554); assay: Displacement of [3H]CP-55940 form human CB1 receptor expressed in CHO cells; assay type: cell-based
Chain of Cannabinoid receptor 1 (P21554 whole entry): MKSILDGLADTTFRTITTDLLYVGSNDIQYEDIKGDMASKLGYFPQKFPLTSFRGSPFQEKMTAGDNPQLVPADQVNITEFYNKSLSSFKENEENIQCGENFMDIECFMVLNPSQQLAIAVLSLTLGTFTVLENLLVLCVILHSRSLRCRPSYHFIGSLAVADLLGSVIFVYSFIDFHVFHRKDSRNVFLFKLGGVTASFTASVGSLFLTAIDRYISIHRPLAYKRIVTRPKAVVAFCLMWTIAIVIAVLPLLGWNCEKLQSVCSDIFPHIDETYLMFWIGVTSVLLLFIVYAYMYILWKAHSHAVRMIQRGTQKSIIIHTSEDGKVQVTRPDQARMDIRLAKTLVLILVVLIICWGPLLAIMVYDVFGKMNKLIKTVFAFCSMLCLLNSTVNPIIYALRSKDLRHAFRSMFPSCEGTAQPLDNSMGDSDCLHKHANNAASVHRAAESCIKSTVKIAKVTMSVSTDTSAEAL

Cannabinoid receptor 2 [2] = target: T1, Cannabinoid receptor 2; assay: Displacement of [3H]CP-55940 form human CB2 receptor expressed in CHO cells; assay type: cell-based
Cannabinoid receptor 2 [3] = target: T1, Cannabinoid receptor 2; assay: Agonist activity at human CB2 receptor expressed in CHO cells by [35S]GTP-gamma-S binding assay; assay type: functional, cell-based
[4] = Tmax in rat at 10 mg/kg, po; assay type: ADME, organism-based; set-up: dose 10 mg/kg, route oral; details: in vivo
[5] = Half life in rat at 10 mg/kg, po; assay type: ADME, organism-based; set-up: dose 10 mg/kg, route oral; details: in vivo
[6] = AUC (0 to 24 hrs) in rat at 10 mg/kg, po; assay type: ADME, organism-based; set-up: time < 24 hr, dose 10 mg/kg, route oral; details: plasma
[7] = Metabolic stability in human liver microsomes assessed as parent compound remaining after 15 mins; assay type: ADME, Microsome; details: read-out: Stability
[8] = Cmax in rat at 10 mg/kg, po; assay type: ADME, organism-based; set-up: dose 10 mg/kg, route oral; details: in vivo
Cannabinoid receptor 2 [9] = target: T1, Cannabinoid receptor 2; assay: Displacement of [3H]CP-55940 form human CB2 receptor expressed in CHO cells at 100 nM; assay type: cell-based
[10] = Half life in rat at 3 mg/kg, po; assay type: ADME, organism-based; set-up: dose 3 mg/kg, route oral; details: in vivo
[11] = Oral bioavailability in rat at 3 mg/kg, po; assay type: ADME, organism-based; details: in vivo
[12] = AUC (0 to 24 hrs) in rat at 3 mg/kg, po; assay type: ADME, organism-based; set-up: time < 24 hr, dose 3 mg/kg, route oral; details: plasma
[13] = Tmax in rat at 3 mg/kg, po; assay type: ADME, organism-based; set-up: dose 3 mg/kg, route oral; details: in vivo
[14] = Cmax in rat at 3 mg/kg, po; assay type: ADME, organism-based; set-up: dose 3 mg/kg, route oral; details: in vivo
[15] = Tmax in rat at 30 mg/kg, po; assay type: ADME, organism-based; set-up: dose 30 mg/kg, route oral; details: in vivo
[16] = Half life in rat at 30 mg/kg, po; assay type: ADME, organism-based; set-up: dose 30 mg/kg, route oral; details: in vivo
[17] = Cmax in rat at 30 mg/kg, po; assay type: ADME, organism-based; set-up: dose 30 mg/kg, route oral; details: in vivo
[18] = AUC (0 to 24 hrs) in rat at 30 mg/kg, po; assay type: ADME, organism-based; set-up: time < 24 hr, dose 30 mg/kg, route oral; details: plasma

For `Cc1c(C(C)(C)C)s/c(=N\C(=O)c2cc(C(F)(F)F)ccc2N(C)C)n1CC1CC1`, the Ratio IC50 (Homo sapiens) was greater than 1000, the Emax (Cannabinoid receptor 2 [1]) was 89% and the IC50 (Cannabinoid receptor 1) was greater than 10000 nM. It also gave an IC50 (Cannabinoid receptor 2 [2]) of 9.4 nM and an EC50 (Cannabinoid receptor 2 [3]) of 7.3 nM.
Work on `COc1ccc(C(F)(F)F)cc1C(=O)/N=c1\sc(C(C)(C)C)c(C)n1CC1CC1` yielded a Tmax [4] of 1 h, a half-life [5] of 244 min and an AUC(0-t) at 24 h [6] of 1120 ng·h/mL. For the same compound, the Ratio IC50 (Homo sapiens) was 1600, the remaining at 0.25 h [7] was 85% and the Emax (Cannabinoid receptor 2 [1]) was 100%. For the same compound, the IC50 (Cannabinoid receptor 1) was 1900 nM, the IC50 (Cannabinoid receptor 2 [2]) was 1.2 nM and the EC50 (Cannabinoid receptor 2 [3]) was 0.62 nM. It also gave a Cmax [8] of 148 ng/mL.
In the case of `Cc1c(C(C)(C)C)s/c(=N\C(=O)c2cc(C(F)(F)F)ccc2Cl)n1CC1CC1`, the Emax (Cannabinoid receptor 2 [1]) is reported as 95%, the IC50 (Cannabinoid receptor 1) is reported as 830 nM and the IC50 (Cannabinoid receptor 2 [2]) is reported as 2.1 nM. The EC50 (Cannabinoid receptor 2 [3]) was 4 nM.
Compound `Cc1c(C(C)C)s/c(=N\C(=O)c2cccc(C(F)(F)F)c2)n1CC1CC1` has an IC50 (Cannabinoid receptor 2 [2]) of 29 nM.
In the case of `CCOC(=O)c1s/c(=N\C(=O)c2cccc(C(F)(F)F)c2)n(CC2CC2)c1C`, the IC50 (Cannabinoid receptor 2 [2]) is reported as 110 nM.
`Cc1s/c(=N\C(=O)c2cccc(C(F)(F)F)c2)n(CC2CC2)c1C` gave an IC50 (Cannabinoid receptor 2 [2]) of 25 nM.
In the case of `Cc1c(C(C)(C)C)s/c(=N\C(=O)c2cc(C(F)(F)F)cc(C(F)(F)F)c2)n1CC1CC1`, the inhibition (Cannabinoid receptor 2 [9]) is reported as 10%.
For `Cc1c(C(C)(C)C)s/c(=N\C(=O)c2cccc(C(F)(F)F)c2Cl)n1CC1CC1`, the IC50 (Cannabinoid receptor 2 [2]) was 0.41 nM.
For `Cc1ccc(C(F)(F)F)cc1C(=O)/N=c1\sc(C(C)(C)C)c(C)n1CC1CC1`, the Ratio IC50 (Homo sapiens) was 570, the Emax (Cannabinoid receptor 2 [1]) was 99% and the IC50 (Cannabinoid receptor 1) was 1200 nM. For the same compound, the IC50 (Cannabinoid receptor 2 [2]) was 2.1 nM and the EC50 (Cannabinoid receptor 2 [3]) was 2.7 nM.
`Cc1c(C(C)(C)C)s/c(=N\C(=O)c2cccc(OC(F)(F)F)c2)n1CC1CC1` showed an Emax (Cannabinoid receptor 2 [1]) of 72%, an IC50 (Cannabinoid receptor 1) of 1100 nM and an IC50 (Cannabinoid receptor 2 [2]) of 5.7 nM. It also gave an EC50 (Cannabinoid receptor 2 [3]) of 7.6 nM.
Work on `COCCn1c(C)c(C(C)(C)C)s/c1=N\C(=O)c1cccc(C(F)(F)F)c1` yielded an Emax (Cannabinoid receptor 2 [1]) of 59%, an IC50 (Cannabinoid receptor 1) of 4100 nM and an IC50 (Cannabinoid receptor 2 [2]) of 10 nM. It also gave an EC50 (Cannabinoid receptor 2 [3]) of 5.6 nM.
For `Cc1c(C(C)(C)C)s/c(=N\C(=O)c2cccc(Br)c2)n1CC1CC1`, the Emax (Cannabinoid receptor 2 [1]) was 96%, the IC50 (Cannabinoid receptor 1) was 53 nM and the IC50 (Cannabinoid receptor 2 [2]) was 1.2 nM. It also gave an EC50 (Cannabinoid receptor 2 [3]) of 0.3 nM.
Work on `Cc1c(C(C)(C)C)s/c(=N\C(=O)c2cccc(Cl)c2)n1CC1CC1` yielded an IC50 (Cannabinoid receptor 2 [2]) of 20 nM.
`CCn1c(C)c(C(C)(C)C)s/c1=N\C(=O)c1cccc(C(F)(F)F)c1` gave an IC50 (Cannabinoid receptor 2 [2]) of 74 nM.
In the case of `Cc1c(C(C)(C)C)s/c(=N\C(=O)c2ccccc2)n1CC1CC1`, the Emax (Cannabinoid receptor 2 [1]) is reported as 100%, the IC50 (Cannabinoid receptor 2 [2]) is reported as 260 nM and the EC50 (Cannabinoid receptor 2 [3]) is reported as 86 nM.
Compound `Cc1cccc(C(=O)/N=c2\sc(C(C)(C)C)c(C)n2CC2CC2)c1` has an IC50 (Cannabinoid receptor 2 [2]) of 22 nM.
Compound `Cc1c(C(C)(C)C)s/c(=N\C(=O)c2cccc(N(C)C)c2)n1CC1CC1` has a remaining at 0.25 h [7] of 44% and an IC50 (Cannabinoid receptor 2 [2]) of 17 nM.
Compound `CCOCCn1c(C)c(C(C)(C)C)s/c1=N\C(=O)c1cccc(C(F)(F)F)c1` has an Emax (Cannabinoid receptor 2 [1]) of 45%, an IC50 (Cannabinoid receptor 1) of 690 nM and an EC50 (Cannabinoid receptor 2 [3]) of 2 nM.
For `Cc1c(C(=O)N(C)C)s/c(=N\C(=O)c2cccc(C(F)(F)F)c2)n1CC1CC1`, the IC50 (Cannabinoid receptor 2 [2]) was 1000 nM.
For `Cc1c(C(C)(C)C)s/c(=N\C(=O)c2cc(C(F)(F)F)ccc2F)n1CC1CC1`, the Ratio IC50 (Homo sapiens) was 440, the Emax (Cannabinoid receptor 2 [1]) was 85% and the IC50 (Cannabinoid receptor 1) was 1500 nM. The EC50 (Cannabinoid receptor 2 [3]) was 1.5 nM.
`Cc1c(C(C)(C)C)s/c(=N\C(=O)c2ccc(Cl)c(C(F)(F)F)c2)n1CC1CC1` showed an IC50 (Cannabinoid receptor 2 [2]) of 230 nM.
For `COc1cccc(C(=O)/N=c2\sc(C(C)(C)C)c(C)n2CC2CC2)c1`, the IC50 (Cannabinoid receptor 2 [2]) was 24 nM.
With `Cc1c(C(C)(C)C)s/c(=N\C(=O)c2ccccc2C(F)(F)F)n1CC1CC1` the IC50 (Cannabinoid receptor 1) was 140 nM.
With `CCCn1c(C)c(C(C)(C)C)s/c1=N\C(=O)c1cccc(C(F)(F)F)c1` the IC50 (Cannabinoid receptor 2 [2]) was 46 nM.
With `Cc1c(C(C)(C)C)s/c(=N\C(=O)c2cccc(F)c2)n1CC1CC1` the inhibition (Cannabinoid receptor 2 [9]) was 44%.
Work on `Cc1c(C(C)(C)C)s/c(=N\C(=O)c2cccc(C(F)(F)F)c2)n1CC1CC1` yielded a half-life [10] of 288 min, a Tmax [4] of 2 h and a half-life [5] of 298 min. The bioavailability [11] was 52%, the AUC(0-t) at 24 h [12] was 326 ng·h/mL and the AUC(0-t) at 24 h [6] was 2050 ng·h/mL. For the same compound, the Tmax [13] was 1.67 h, the Ratio IC50 (Homo sapiens) was 270 and the Cmax [14] was 43.1 ng/mL. For the same compound, the Tmax [15] was 2.67 h, the half-life [16] was 282 min and the IC50 (Cannabinoid receptor 1) was 3500 nM. The IC50 (Cannabinoid receptor 2 [2]) was 13 nM, the Cmax [17] was 498 ng/mL and the AUC(0-t) at 24 h [18] was 4240 ng·h/mL. For the same compound, the EC50 (Cannabinoid receptor 2 [3]) was 10 nM and the Cmax [8] was 223 ng/mL.
For `Cc1c(C(C)(C)C)s/c(=N\C(=O)c2cccc(C(F)(F)F)c2)n1C`, the IC50 (Cannabinoid receptor 2 [2]) was 220 nM.
With `Cc1c(C(C)(C)C)s/c(=N\C(=O)c2ccc(C(F)(F)F)cc2)n1CC1CC1` the inhibition (Cannabinoid receptor 2 [9]) was 24%.
